PMC4502414, “Transforming berberine into its intestine-absorbable form by the gut microbiota” (Scientific Reports, 2015)
Read-outs that look alike come from different tables or passages of the source.

How the values were obtained:
[1] = biological target: T1, nitroreductase (Escherichia coli, UniProt P38489); experiment: Nitroreductase-mediated BBR reduction, cell-free incubation; format: biochemical; conditions: 2-IBA 100 μM, nitroreductase-containing cell-free incubation; read-out: inhibition rate of BBR-to-dhBBR conversion
T1 construct: purchased Sigma-Aldrich Co. (Shanghai, China); host or cells: Escherichia coli
T1 sequence (P38489 whole entry): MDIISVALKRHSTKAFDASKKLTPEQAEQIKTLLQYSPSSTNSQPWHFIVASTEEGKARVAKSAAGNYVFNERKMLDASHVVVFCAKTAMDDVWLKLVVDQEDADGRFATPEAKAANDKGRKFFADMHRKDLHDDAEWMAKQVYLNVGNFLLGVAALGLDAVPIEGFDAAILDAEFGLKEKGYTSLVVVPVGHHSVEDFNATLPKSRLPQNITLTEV
Procedure: (§1) BBR was incubated with nitroreductase in intestinal bacteria cultures. The reaction mixture consisted of BBR (50 μg/ml), an NADPH-regenerating system and nitroreductase (5 μg/ml) in a final volume of 1 ml under the protection of N2. After incubation for 0, 2, 4, 6 and 12 h at 37 °C, the reaction was terminated by the addition of 1 ml of ice-cold acetonitrile. The samples were then extracted with 1 ml of ethyl acetate after adding 1 ml of 0.5 M sodium hydroxide solution. The organic phase was evaporated to dryness under a nitrogen flow in a water bath at 40 °C. The residue was dissolved with 200 μl of the mobile phase for further analysis. 2-Iodosobenzoic acid (2-IBA), a specific inhibitor of nitroreductase, was used to verify the role of bacterial nitroreductase.

[2] = system: mixture of rat gut bacteria; experiment: BBR-to-dhBBR conversion in rat gut bacteria mixture with nitroreductase inhibitor; format: cell-based; conditions: 2-IBA in BBR incubation with mixture of rat gut bacteria, 12 h
Procedure: as §1

[3] = Therapeutic effect of BBR on hyperglycemia and hyperlipidemia in KK-Ay mice with or without antibiotics; format: in vivo
Description: KK-Ay mice with type 2 diabetes (female, 12 ± 1 weeks of age) were purchased from the Institute of Laboratory Animal Sciences, Chinese Academy of Medical Sciences (Beijing, China). […] Antibiotics at the doses described above were orally administered to KK-Ay mice for 3 days before the BBR treatment course, and the pseudo germ-free (PGF) state of the experimental mice was confirmed (see above). Four groups (n = 6 for each group) were used in the experiment: Group1, PGF KK-Ay mice orally treated with antibiotics (qd, at the dosage described above) plus BBR (200 mg/kg, qd) for 2 weeks; Group 2, untreated KK-Ay mice orally treated with BBR (200 mg/kg, qd) for 2 weeks; Group 3, PGF KK-Ay mice orally treated with antibiotics (qd, at a dosage identical to that for Group 1) for 2 weeks; Group 4, untreated KK-Ay mice. The antibiotics were administered in the morning and BBR was administered in the afternoon. All the animals were fed a high-fat diet. […] All of the mice were euthanized on day 14, and blood samples were taken to measure the fasting serum glucose (Glu), triglyceride (TG) and cholesterol (CHO) using Glu, TG and CHO reagent kits (Biosino Bio-Technology and Science INC, Beijing China), respectively. C57BL/6J mice were used as a wild-type reference. The body weights of the mice before, during and after treatments were recorded for 14 days.

[4] = Plasma concentration of BBR in KK-Ay mice treated or untreated with antibiotics; format: in vivo; conditions: for Cmax at 14 day: KK-Ay, mouse, plasma, oral, 200 mg/kg, BBR 200 mg/kg qd
Procedure: Blood samples of the mice in Groups 1 and 2 were collected into a heparinized tube 30 min after the oral administration of BBR. The samples were taken at days 1, 3, 6, 10 and 14 of the BBR treatment course. The samples were centrifuged at 10,000 g for 5 min, and the plasma was collected and stored at −80 °C before analysis.

[5] = design: method as in PMID 24174332; conditions: patients; cited from earlier work
[6] = 72-h cumulative fecal excretion of BBR and dhBBR in pseudo germ-free (PGF) and conventional rats; format: in vivo, SD rats; conditions: oral BBR 200 mg/kg
Procedure: Male SD rats (180–200 g) were orally treated with cefadroxil (100 mg/kg), terramycin (300 mg/kg) and erythromycin (300 mg/kg) twice a day for 3 days, and pharmacokinetic examination was performed 2 days after final administration. The colon contents of the rats were collected on the first and third days after the final treatment with antibiotics, and the germ-free status was confirmed by culturing fecal samples aerobically on a nutrient agar culture medium. Fecal samples from non-antibiotic-exposed rats served as control samples. Before oral administration of a single dose of BBR (200 mg/kg), the PGF rats were fasted overnight with free access to water. […] The samples were stored at −20 °C for further analysis.

[7] = Absorption of BBR and dhBBR in Caco-2 cells; format: in vitro ADME; conditions: human
Procedure: A Caco-2 cell assay was conducted using a method reported previously. […] To determine the rate of drug transport in the apical-to-basolateral direction, 200 μl of the compound working solution was added to the filter well (apical compartment), and 800 μl of HBSS was added to the receiver plate (basolateral compartment). Accordingly, to determine the rate of drug transport in the basolateral-to-apical direction, 800 μl of the compound working solution was added to each well of the receiver plate and 200 μl of HBSS was added to the filter well. The plates were incubated for 30 min at 37 °C with shaking at 150 rpm on a rotary shaker. At the end of the transport period, aliquots of 50 μl were removed directly from the apical and basolateral wells and transferred to wells of new plates. Four volumes of cold methanol containing internal standards were added into each well. The samples were centrifuged at 16,000 g for 15 min. Aliquots of 200 μl of the supernatant were used for the LC-MS/MS analysis.

[8] = design: method as in PMID 21637946, PMID 12530470; conditions: cited from earlier work
[9] = system: 17 intestinal bacteria; experiment: Anti-bacterial test (MIC, broth microdilution); format: cell-based; conditions: 24 h
Procedure: Seventeen bacterial strains (see above) were used in the susceptibility test for BBR and dhBBR. The bacterial strains, which belong to different species of bacteria, were collected and identified as described above. The minimum inhibitory concentrations (MICs) of BBR and dhBBR after 24 h were determined through the broth microdilution method according to the CLSI guidelines. BBR and dhBBR were tested at a concentration range of 8 to 512 μg/ml. The MIC was defined as the lowest concentration of an agent that prevents turbidity. The experiment was repeated three times. All of the bacterial strains tested in this study (S. aureus ATCC 29213, E. faecalis ATCC 29212, E. coli ATCC 25922, S. aureus 08-43, S. epidermidis 12-12, E. faecium 13-01, E. faecalis 13-01, E. coli 06-05, K. pneumoniae 13-14, Ps. aeruginosa 13-10, A. baumannii 13-02, E. cloacae 13-12, and P. mirabilis 13-01) were facultative anaerobes, of which S. aureus ATCC 29213, E. faecalis ATCC 29212 and E. coli ATCC 25922 were standard strains from ATCC (USA) and served as quality controls. L. casei ATCC 334, L. acidophilus ATCC 4356, B. longum ATCC 15707, and B. breve ATCC 15700 were also tested in this anti-bacterial experiment. Ampicillin was used as the positive control.

[10] = Plasma BBR in pseudo germ-free versus conventional rats after oral BBR; format: in vivo; conditions: male, SD, rat, 200 mg/kg, oral BBR 200 mg/kg
Procedure: Male SD rats (180–200 g) were orally treated with cefadroxil (100 mg/kg), terramycin (300 mg/kg) and erythromycin (300 mg/kg) twice a day for 3 days, and pharmacokinetic examination was performed 2 days after final administration. The colon contents of the rats were collected on the first and third days after the final treatment with antibiotics, and the germ-free status was confirmed by culturing fecal samples aerobically on a nutrient agar culture medium. Fecal samples from non-antibiotic-exposed rats served as control samples.
Before oral administration of a single dose of BBR (200 mg/kg), the PGF rats were fasted overnight with free access to water. Blood samples were collected from the posterior orbital venous plexus into a heparinized tube at 0, 0.25, 0.5, 1, 1.5, 2, 3, 4, 6, 8, and 12 h post-BBR treatment and then subjected to the procedure described above. Fecal samples were also collected at 0, 6, 12, 24, 36 and 48 h post-BBR treatment. The samples were stored at −20 °C for further analysis.

[11] = Plasma pharmacokinetics after oral dhBBR or BBR in rats; format: in vivo, SD rats; conditions: SD, rat, plasma, po, 200 mg/kg
Procedure: The plasma (100 μl) was precipitated with 100 μl of acetonitrile after addition of 10 μl of the internal standard. BBR served as a control in the study. The plasma concentrations of BBR and dhBBR were determined using LC-MS/MS 8040 and LC-MS/MS 8050.

[12] = Effect of ions on the dhBBR-to-BBR transformation; conditions: EDTA-2Na 10 mM
Procedure: dhBBR was added into the reaction solution containing FeCl3, CuCl2, ZnCl2, and NaCl (at concentrations of 0.033, 0.333 and 3.33 mM, respectively). Ethylenediaminetetraacetic acid disodium salt (EDTA-2Na, 10 mM), a chelating agent for metal ions, was used in the test.

[13] = Effect of heat inactivation and vitamin C on dhBBR-to-BBR transformation in rat small intestine homogenate; format: in vitro ADME; conditions: added to the reaction solution
Procedure: The rats (n = 3) were sacrificed to obtain fresh small intestine homogenate. The homogenate was then boiled for 2 min to inactivate all of the enzymes. After pre-incubation at 37 °C for 2 min, 5 μl of dhBBR (10 mM, dissolved in DMSO) was added into the inactivated homogenate, and fresh homogenate (active one) was used as a reference. The sample was mixed thoroughly and centrifuged at 16,000 g for 5 min. The supernatant was transferred into new tubes, treated with 500 μl of acetonitrile, and then centrifuged. Twenty-microliter aliquots were used for the HPLC analysis.
To examine the oxidative reaction, 100 μl of vitamin C was pre-incubated with the inactivated homogenate; the final concentrations of vitamin C were 95, 9.5 and 0.95 mM. The superoxide anion in the sample was detected with an O2^− ELISA kit (Beijing Biolab Co., Ltd., Beijing, China; lot: 201404) following the manufacturer’s instructions.

[14] = design: method as in PMID 18285556; conditions: cited from earlier work

**Q.** With `O=Ic1ccccc1C(=O)O` [2-IBA, 2-iodosobenzoic acid] as the molecule, how does the inhibition at 100 µM [1] read?
**A.** Its inhibition at 100 µM is 88.3%.

**Q.** What about the “inhibition of dhBBR production” value [2] of the same molecule?
**A.** The value was 78.7%.

**Q.** With `COc1ccc2cc3[n+](cc2c1OC)CCc1cc2c(cc1-3)OCO2` [BBR, berberine] as the molecule, how does the “reduction of therapeutic efficacy of BBR on cholesterol by antibiotics” value ([3]; Group 1 vs Group 2, day 14) read?
**A.** Its value is 44%.

**Q.** And the “reduction of therapeutic efficacy of BBR on triglyceride by antibiotics” value ([3]; Group 1 vs Group 2, day 14)?
**A.** The value was 53%.

**Q.** What about the “reduction of therapeutic efficacy of BBR on fasting blood glucose by antibiotics” value ([3]; antibiotics before and during BBR (Group 1) vs BBR only (Group 2), day 14) of the same molecule?
**A.** Its value is 42%.

**Q.** What about the Cmax at 14 day ([4]; day 14, mice treated with antibiotics (Group 1)) of the same molecule?
**A.** The Cmax at 14 day was 28.3 ± 3.41 ng/mL.

**Q.** What about the Cmax at 14 day ([4]; day 14, mice without antibiotics (Group 2)) of the same molecule?
**A.** The Cmax at 14 day was 178 ± 57.6 ng/mL.

**Q.** What about the “Folds of Cmax [BBR / (BBR+Antibiotics)]” value ([4]; day 14) of the same molecule?
**A.** The value was 6.4 fold.

**Q.** And the “Folds of Cmax, Group 2 over Group 1” value ([4]; throughout days 1, 3, 6, 10 and 14)?
**A.** Its value is 3.5-6.5 fold.

**Q.** And the “reduction of LDL-c level” value [5]?
**A.** Its value is 10–25%.

**Q.** And the “reduction of fasting blood glucose level” value [5]?
**A.** The value was 21–36%.

**Q.** And the “reduction of triglyceride level” value [5]?
**A.** Its value is 20–35%.

**Q.** What about the “total BBR in feces over 72 h, % of the administered amount” value ([6]; PGF rats) of the same molecule?
**A.** Its value is 27.81%.

**Q.** And the “total BBR in feces over 72 h, % of the administered amount” value ([6]; untreated (conventional) rats)?
**A.** The value was 18.67%.

**Q.** What about the efflux ratio at 30 min, 5 μM ([7]; Caco-2, pH 7.4, read-out: efflux ratio (ER)) of the same molecule?
**A.** Its efflux ratio at 30 min, 5 μM is 32.4.

**Q.** And the Papp A→B at 30 min, 5 μM ([7]; pH 7.4, Caco-2, 5 μM, 30 min)?
**A.** Its Papp A→B at 30 min, 5 μM is 0.38 ×10⁻⁶ cm/s.

**Q.** And the water solubility [8]?
**A.** Its water solubility is “poor water solubility”.

**Q.** What about the MIC ([9]; span over 17 strains, read-out: minimal inhibitory concentration (MIC) on the 17 bacteria) of the same molecule?
**A.** The MIC was > 128 µg/mL.

**Q.** What about the MIC ([9]; read-out: MIC, most of the 17 tested strains) of the same molecule?
**A.** Its MIC is ≥ 512 µg/mL.

**Q.** What about the AUC(0-t) ([10]; conventional SD rat) of the same molecule?
**A.** The AUC(0-t) was 70.9 ng·h/mL.

**Q.** What about the Cmax ([10]; conventional SD rat) of the same molecule?
**A.** Its Cmax is 26 ng/mL.

**Q.** And the AUC(0-t) ([10]; pseudo germ-free rat)?
**A.** The AUC(0-t) was 11.9 ng·h/mL.

**Q.** And the Cmax ([10]; pseudo germ-free rat)?
**A.** Its Cmax is 6.92 ng/mL.

**Q.** And the AUC(0-t) ([11]; oral BBR 200 mg/kg, Fig. 3c curve 2, read-out: AUC(0-t) of BBR in plasma)?
**A.** The AUC(0-t) was 54.6 ng·h/mL.

**Q.** What about the Cmax ([11]; oral BBR 200 mg/kg, Fig. 3c curve 2, read-out: Cmax of BBR in plasma) of the same molecule?
**A.** The Cmax was 16.1 ng/mL.

**Q.** And the AUC(0-t) ([11]; oral dhBBR 200 mg/kg, read-out: AUC(0-t) of BBR in blood)?
**A.** The AUC(0-t) was 262 ng·h/mL.

**Q.** And the Cmax ([11]; oral dhBBR 200 mg/kg, read-out: Cmax of BBR in blood)?
**A.** The Cmax was 52.5 ng/mL.

**Q.** For `O=C([O-])CN(CCN(CC(=O)O)CC(=O)O)CC(=O)[O-].[Na+].[Na+]` [EDTA-2Na, Ethylenediaminetetraacetic acid disodium salt], which “reduction of dhBBR-to-BBR oxidization” value [12] is on record?
**A.** Its value is 5%.

**Q.** Which “effect on dhBBR-to-BBR reversion” value [13] does the source give for `O=C1O[C@H]([C@@H](O)CO)C(O)=C1O` [vitamin C] here?
**A.** Its value is “almost completely terminated”.

**Q.** Which “absorption in the intestine compared with BBR” value [14] does the source give for dihydroberberine sulfate here?
**A.** Its value is “better absorption”.
